Assay results from ChEMBL document CHEMBL1201862, “PubChem BioAssay data set” (2004).
Calls of active or inactive are those of the source.

Experiments:
[1] = target: Type-1 angiotensin II receptor (Homo sapiens, UniProt P30556); assay: AT1 receptor agonists, dose response, selectivity assay for APJ receptor agonist project, cell-based, uHTS hits (AID 488865); type: functional;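 also: beta-arrestin recruitment to AT1 measured by enzyme fragment complementation luminescence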
[2] = target: T1, Runt-related transcription factor 1/Core-binding factor subunit beta (Homo sapiens, UniProt Q01196+Q13951); assay: inhibitors of RUNX1 Runt–CBFb-SMMHC binding, primary screen, biochemical, FRET, Cerulean-Runt, Venus-CBFb-SMMHC, uHTS (AID 1434); type: protein assay;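 also: partner is the CBFb-SMMHC leukemia fusion protein rather than wild-type CBFb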
T1 sequence (Q01196 whole entry, the tested form may be a part): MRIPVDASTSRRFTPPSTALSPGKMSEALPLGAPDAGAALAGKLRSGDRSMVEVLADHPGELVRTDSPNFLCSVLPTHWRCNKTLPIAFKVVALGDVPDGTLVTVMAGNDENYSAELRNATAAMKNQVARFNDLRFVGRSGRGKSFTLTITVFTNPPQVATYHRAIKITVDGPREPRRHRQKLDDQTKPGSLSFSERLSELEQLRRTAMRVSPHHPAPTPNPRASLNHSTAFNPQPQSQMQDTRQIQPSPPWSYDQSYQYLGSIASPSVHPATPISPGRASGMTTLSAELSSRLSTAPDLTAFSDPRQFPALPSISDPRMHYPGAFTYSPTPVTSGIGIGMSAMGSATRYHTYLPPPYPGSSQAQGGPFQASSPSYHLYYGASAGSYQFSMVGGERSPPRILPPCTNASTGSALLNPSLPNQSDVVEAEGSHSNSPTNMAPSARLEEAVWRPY
T1 sequence (Q13951 whole entry, the tested form may be a part): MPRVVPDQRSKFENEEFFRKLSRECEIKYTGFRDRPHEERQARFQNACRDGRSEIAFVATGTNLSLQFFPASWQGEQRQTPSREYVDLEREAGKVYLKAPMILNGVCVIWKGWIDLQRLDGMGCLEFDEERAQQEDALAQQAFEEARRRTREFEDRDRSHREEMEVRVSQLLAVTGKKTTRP

[3] = target: T2, Voltage-gated N-type calcium channel alpha-1B subunit/Amyloid beta A4 precursor protein-binding family A member 1 (Homo sapiens, UniProt Q00975+Q02410); type: protein assay
T2 sequence (Q00975 whole entry): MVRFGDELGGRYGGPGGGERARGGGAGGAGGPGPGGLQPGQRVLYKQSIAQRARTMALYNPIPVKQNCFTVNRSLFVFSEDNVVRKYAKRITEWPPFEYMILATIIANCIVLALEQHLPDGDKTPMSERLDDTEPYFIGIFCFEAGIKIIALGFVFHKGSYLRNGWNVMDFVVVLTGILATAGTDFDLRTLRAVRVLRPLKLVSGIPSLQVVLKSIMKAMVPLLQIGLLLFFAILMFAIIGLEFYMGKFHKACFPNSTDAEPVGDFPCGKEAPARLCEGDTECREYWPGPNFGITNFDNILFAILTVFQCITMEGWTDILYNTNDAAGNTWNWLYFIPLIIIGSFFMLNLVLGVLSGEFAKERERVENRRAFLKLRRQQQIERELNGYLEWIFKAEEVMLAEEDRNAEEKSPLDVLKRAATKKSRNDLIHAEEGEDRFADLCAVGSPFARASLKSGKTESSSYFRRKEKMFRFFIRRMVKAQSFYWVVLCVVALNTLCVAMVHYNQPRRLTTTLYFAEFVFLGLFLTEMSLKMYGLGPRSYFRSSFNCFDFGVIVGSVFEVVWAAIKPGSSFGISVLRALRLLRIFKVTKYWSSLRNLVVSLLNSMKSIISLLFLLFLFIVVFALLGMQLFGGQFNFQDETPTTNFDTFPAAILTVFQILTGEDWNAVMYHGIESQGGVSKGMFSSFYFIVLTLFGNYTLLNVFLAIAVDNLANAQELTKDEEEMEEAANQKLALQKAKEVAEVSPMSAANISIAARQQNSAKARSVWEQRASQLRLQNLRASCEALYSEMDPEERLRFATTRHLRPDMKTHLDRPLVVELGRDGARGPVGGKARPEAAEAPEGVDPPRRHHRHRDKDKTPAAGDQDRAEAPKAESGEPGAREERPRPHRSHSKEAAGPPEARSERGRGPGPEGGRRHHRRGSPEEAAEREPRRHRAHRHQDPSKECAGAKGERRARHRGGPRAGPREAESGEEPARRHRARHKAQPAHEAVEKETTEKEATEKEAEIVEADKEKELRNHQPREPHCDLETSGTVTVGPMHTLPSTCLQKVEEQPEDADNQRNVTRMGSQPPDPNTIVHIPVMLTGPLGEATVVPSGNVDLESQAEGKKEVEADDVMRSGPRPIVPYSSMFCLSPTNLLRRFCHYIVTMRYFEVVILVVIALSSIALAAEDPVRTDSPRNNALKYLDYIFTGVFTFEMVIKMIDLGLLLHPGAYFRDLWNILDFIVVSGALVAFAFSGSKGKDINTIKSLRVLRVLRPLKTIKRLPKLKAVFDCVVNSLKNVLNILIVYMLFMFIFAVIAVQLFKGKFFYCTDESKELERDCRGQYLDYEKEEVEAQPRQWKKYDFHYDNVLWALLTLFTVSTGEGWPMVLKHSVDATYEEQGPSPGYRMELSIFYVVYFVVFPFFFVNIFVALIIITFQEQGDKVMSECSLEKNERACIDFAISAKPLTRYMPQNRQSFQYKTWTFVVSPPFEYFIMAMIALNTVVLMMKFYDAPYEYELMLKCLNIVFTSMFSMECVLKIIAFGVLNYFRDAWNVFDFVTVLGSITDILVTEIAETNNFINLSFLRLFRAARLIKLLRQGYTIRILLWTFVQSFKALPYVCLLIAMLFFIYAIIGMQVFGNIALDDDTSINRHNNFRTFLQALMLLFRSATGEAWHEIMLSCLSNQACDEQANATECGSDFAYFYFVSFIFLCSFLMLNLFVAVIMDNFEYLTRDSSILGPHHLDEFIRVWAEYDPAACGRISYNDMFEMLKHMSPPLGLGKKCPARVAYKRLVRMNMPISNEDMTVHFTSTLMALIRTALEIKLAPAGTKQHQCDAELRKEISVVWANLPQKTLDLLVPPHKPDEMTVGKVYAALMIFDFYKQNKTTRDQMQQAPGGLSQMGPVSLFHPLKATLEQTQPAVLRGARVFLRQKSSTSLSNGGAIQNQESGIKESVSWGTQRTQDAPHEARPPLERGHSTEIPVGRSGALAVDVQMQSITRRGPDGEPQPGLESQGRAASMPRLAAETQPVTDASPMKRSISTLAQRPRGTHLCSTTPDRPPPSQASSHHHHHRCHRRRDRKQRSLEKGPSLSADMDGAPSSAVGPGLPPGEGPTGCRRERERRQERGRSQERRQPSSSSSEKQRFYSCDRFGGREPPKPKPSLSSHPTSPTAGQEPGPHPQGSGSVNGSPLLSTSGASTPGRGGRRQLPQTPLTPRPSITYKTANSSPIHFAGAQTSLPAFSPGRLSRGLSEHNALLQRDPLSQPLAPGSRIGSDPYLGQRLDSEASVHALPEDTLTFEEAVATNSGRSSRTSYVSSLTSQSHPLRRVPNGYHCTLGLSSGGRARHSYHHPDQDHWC
T2 sequence (Q02410 whole entry): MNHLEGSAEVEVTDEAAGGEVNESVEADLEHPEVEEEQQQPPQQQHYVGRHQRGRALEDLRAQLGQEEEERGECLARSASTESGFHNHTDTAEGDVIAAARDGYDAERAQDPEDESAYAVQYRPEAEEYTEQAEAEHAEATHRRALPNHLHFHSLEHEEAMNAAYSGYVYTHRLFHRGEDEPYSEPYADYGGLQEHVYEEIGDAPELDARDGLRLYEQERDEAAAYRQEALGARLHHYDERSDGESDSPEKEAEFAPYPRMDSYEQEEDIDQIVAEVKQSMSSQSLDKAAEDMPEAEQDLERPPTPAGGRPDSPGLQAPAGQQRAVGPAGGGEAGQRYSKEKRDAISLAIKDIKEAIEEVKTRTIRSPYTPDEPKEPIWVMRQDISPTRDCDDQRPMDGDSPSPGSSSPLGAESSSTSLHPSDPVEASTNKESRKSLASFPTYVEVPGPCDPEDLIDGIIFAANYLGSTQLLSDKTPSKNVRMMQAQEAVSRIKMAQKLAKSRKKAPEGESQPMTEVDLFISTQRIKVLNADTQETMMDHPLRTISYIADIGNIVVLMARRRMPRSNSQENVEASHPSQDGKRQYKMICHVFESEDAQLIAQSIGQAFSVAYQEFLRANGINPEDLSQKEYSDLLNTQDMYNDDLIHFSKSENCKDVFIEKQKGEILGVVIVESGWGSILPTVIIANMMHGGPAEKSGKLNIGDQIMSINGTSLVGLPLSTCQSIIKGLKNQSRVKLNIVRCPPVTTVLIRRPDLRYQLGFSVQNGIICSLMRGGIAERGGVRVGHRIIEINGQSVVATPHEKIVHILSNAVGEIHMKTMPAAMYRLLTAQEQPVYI

[4] = target: T1, Runt-related transcription factor 1/Core-binding factor subunit beta; assay: inhibitors of RUNX1 Runt–CBFb-SMMHC binding, biochemical, TR-FRET (AID 1438); type: protein assay
[5] = target: T2, Voltage-gated N-type calcium channel alpha-1B subunit/Amyloid beta A4 precursor protein-binding family A member 1; type: protein assay; remark: listed apart in the source
[6] = target: T3, Mannose-6-phosphate isomerase (Homo sapiens, UniProt P34949); assay: human PMI inhibitors, high substrate, primary screen, biochemical, fluorescence intensity, high mannose 6-phosphate (AID 1220)
T3 sequence (P34949 whole entry): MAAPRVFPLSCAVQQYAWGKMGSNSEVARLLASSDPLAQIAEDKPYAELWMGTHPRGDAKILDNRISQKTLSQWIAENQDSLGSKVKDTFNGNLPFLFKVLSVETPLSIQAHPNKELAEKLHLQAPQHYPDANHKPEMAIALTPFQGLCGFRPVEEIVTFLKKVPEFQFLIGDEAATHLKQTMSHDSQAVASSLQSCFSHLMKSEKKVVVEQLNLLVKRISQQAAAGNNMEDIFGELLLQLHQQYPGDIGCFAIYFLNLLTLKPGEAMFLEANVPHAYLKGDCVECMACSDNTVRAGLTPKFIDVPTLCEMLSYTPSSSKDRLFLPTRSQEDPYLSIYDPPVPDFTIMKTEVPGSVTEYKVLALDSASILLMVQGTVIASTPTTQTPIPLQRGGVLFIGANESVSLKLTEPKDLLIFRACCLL

[7] = target: T3, Mannose-6-phosphate isomerase; assay: PMI enzyme inhibitors, confirmation, biochemical, fluorescence intensity (AID 1535)
[8] = target: DNA dC->dU-editing enzyme APOBEC-3A (Homo sapiens, UniProt P31941); assay: APOBEC3A DNA deaminase inhibitors, dose response, biochemical (AID 504722); type: functional
[9] = target: Glucose-6-phosphate 1-dehydrogenase (Homo sapiens, UniProt P11413); assay: human G6PD enzyme inhibitors, dose response, selectivity assay for P. falciparum G6PD inhibitor project, biochemical, fluorescence (AID 504792); type: functional
Glucose-6-phosphate 1-dehydrogenase, sequence (P11413 whole entry): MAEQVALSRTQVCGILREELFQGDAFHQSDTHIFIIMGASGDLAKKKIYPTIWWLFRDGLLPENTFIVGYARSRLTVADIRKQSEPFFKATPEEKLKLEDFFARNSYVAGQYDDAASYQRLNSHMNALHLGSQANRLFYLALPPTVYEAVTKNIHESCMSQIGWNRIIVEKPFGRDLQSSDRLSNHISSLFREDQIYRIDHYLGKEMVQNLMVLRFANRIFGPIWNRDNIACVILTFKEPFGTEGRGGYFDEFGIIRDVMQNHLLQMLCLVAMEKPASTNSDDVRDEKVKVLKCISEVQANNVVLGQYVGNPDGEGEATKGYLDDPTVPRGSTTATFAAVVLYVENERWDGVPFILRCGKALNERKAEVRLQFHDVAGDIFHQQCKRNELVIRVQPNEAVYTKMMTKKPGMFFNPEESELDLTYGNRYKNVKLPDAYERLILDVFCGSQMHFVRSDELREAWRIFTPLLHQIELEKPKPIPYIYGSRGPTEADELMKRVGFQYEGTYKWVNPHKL

Phosphomannomutase 2 = target: T4, Phosphomannomutase 2 (Homo sapiens, UniProt O15305); assay: Counter screen SAR assay for PMM2 inhibitors via a fluorescence intensity assay. [Related pubchem assays (depositor defined):AID1545, AID1574]
T4 sequence (O15305 whole entry): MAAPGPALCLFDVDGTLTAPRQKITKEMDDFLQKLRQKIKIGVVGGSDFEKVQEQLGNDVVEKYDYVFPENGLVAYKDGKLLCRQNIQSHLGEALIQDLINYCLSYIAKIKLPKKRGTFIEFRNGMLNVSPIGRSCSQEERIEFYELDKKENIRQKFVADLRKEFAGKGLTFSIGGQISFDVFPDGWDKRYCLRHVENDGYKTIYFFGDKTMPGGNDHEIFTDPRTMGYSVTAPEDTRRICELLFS

[10] = target: DNA dC->dU-editing enzyme APOBEC-3G (Homo sapiens, UniProt Q9HC16); assay: Dose Response confirmation of small molecule APOBEC3G DNA Deaminase Inhibitors via a fluorescence-based single-stranded DNA deaminase assay. [Related pubchem assays (depositor defined):AID493012, AID493028]; type: functional
DNA dC->dU-editing enzyme APOBEC-3G, sequence (Q9HC16 whole entry): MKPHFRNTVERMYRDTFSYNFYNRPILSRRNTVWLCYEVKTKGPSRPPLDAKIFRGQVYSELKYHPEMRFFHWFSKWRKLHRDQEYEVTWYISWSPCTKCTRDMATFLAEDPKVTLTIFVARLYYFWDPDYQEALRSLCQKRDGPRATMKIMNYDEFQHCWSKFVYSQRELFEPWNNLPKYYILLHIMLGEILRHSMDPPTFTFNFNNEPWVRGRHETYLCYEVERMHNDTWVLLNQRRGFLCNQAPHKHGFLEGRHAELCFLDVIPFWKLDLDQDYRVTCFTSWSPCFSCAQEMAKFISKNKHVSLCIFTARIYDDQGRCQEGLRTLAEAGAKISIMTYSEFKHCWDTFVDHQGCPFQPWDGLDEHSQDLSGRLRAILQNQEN

[11] = target: DNA damage-inducible transcript 3 protein (Mus musculus, UniProt P35639); type: functional, Cricetulus griseus
DNA damage-inducible transcript 3 protein, sequence (P35639 whole entry): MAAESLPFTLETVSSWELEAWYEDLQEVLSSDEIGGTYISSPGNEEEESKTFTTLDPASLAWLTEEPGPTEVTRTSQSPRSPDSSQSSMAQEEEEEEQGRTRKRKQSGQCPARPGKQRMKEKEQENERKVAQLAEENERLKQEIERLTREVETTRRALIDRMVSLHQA

CCOC(=O)C1=C(Cn2cnc3ccccc32)NC(=O)NC1c1cc(C)ccc1C (configuration not stated)
EC50 [1]: > 100 µM (inactive)

CCOC(=O)Cc1csc(-n2sc3ccccc3c2=O)n1
IC50 [2]: 5.4 µM (active) | IC50 [3]: 1.15 µM (active) | IC50 [4]: 8.58 µM (active) | IC50 [5]: > 50 µM (inactive) | IC50 [6]: 23.5 µM (active) | IC50 [7]: > 50 µM (inactive) | IC50 [8]: > 100 µM (inactive) | IC50 [9]: 21.6 µM (inactive) | IC50 (Phosphomannomutase 2): > 100 µM (inactive) | IC50 [10]: 12.6 µM (active)

Cc1nc(SCC(=O)Nc2ccc(C)c(F)c2)c2oc3ccccc3c2n1
Absolute IC50 (CHOP) [11]: 10 µM
